Assay results reported in US20050137252A1, “Production of dihydronepetalactone” (priority 2003, published 2005).

Tested on: Aedes aegypti mosquitoes
Assay: in vitro Gupta box landing assay (insect repellency)
Settings: 1% in IPA, 25 μl on Baudruche membrane over bovine blood at 37° C.; about 250 4-day-old female mosquitoes; probing recorded at 2 minute intervals over 20 minutes; mean of three replicates; compared with prior-art DHN materials
Experimental: The product of Example 1 is evaluated for insect repellency in a comparison test with DHN stereoisomers prepared according to prior-art methods, and against the major commercial insect repellent composition, DEET (N,N-diethyl-m-toluamide). As a control, neat iso-propanol (IPA) is employed as well. Repellency is determined against Aedes aegypti mosqutioes in the in vitro Gupta box landing assay. In this method a chamber contains 5 wells, each covered by a Baudruche (animal intestine) membrane. Each well is filled with bovine blood, containing sodium citrate (to prevent clotting) and ATP (72 mg ATP disodium salt per 26 ml of blood), and heated to 37° C. A volume of 25 μl of isopropyl alcohol (IPA) containing one test specimen or control is applied to each membrane. The concentrations are all 1% in IPA except where otherwise indicated. Controls are either neat IPA, an untreated membrane surface, or a membrane surface treated with a 1% solution of DEET. After 5 min, approximately 250 4-day-old female Aedes aegypti mosquitoes are introduced into the chamber. The number of mosquitoes probing the membranes for each treatment is recorded at 2 minute intervals over 20 minutes. Each datum represents the mean of three replicate experiments.

## CC1COC(=O)C2C(C)CCC12 (single isomer, unassigned) [DHN Structure F]
  repellent efficacy (mean number of landings over elapsed time, FIG. 3): compared well in repellent efficacy
